Reference: the NIST ThermoML archive (doi:10.1021/je060088h)
Numbers after ± are expanded uncertainties.

Conditions: Liquid, flow method with low res time

CCCCCCCCCCCCCCCCCCCCCCCCCCCCCC [triacontane]
Conditions	vapor or sublimation pressure [kPa]
713.5 K	82.32 ± 3.3
737.8 K	127.8 ± 5.1
761.2 K	190.2 ± 7.6
786 K	282.4 ± 11
809.6 K	414.1 ± 17

CSc1ccccc1 [1-phenyl-1-thiaethane]
Conditions	Critical pressure [kPa]	Critical temperature [K]	vapor or sublimation pressure [kPa]
–	4050 ± 160	705.9 ± 4	–
463.7 K	–	–	90.87 ± 3.7
492.1 K	–	–	177.3 ± 7.1
526.3 K	–	–	354.1 ± 14
566.1 K	–	–	696.4 ± 28
613.6 K	–	–	1383 ± 55
671.1 K	–	–	2765 ± 110
691.7 K	–	–	3454 ± 140
699.9 K	–	–	3799 ± 150
704.3 K	–	–	3964 ± 160

c1ccc2ccccc2c1 [naphthalene]
Conditions	Critical pressure [kPa]	Critical temperature [K]	vapor or sublimation pressure [kPa]
–	4130 ± 170	750 ± 4	–
502.2 K	–	–	128.9 ± 5.2
552.2 K	–	–	337.8 ± 14
646.6 K	–	–	1338 ± 54
731.8 K	–	–	3445 ± 140
741.5 K	–	–	3793 ± 150
745.9 K	–	–	3958 ± 160

OCCc1ccccc1 [2-phenylethanol]
Conditions	Critical pressure [kPa]	Critical temperature [K]	vapor or sublimation pressure [kPa]
–	3990 ± 160	723.5 ± 4	–
488.7 K	–	–	91.7 ± 3.7
515.5 K	–	–	174.9 ± 7
547.5 K	–	–	340.6 ± 14
587.4 K	–	–	692.9 ± 28
634.4 K	–	–	1382 ± 55
689.8 K	–	–	2762 ± 110
711.2 K	–	–	3451 ± 140
719.2 K	–	–	3793 ± 150
722.5 K	–	–	3966 ± 160

CCCCCCCCCCCCS [1-dodecanethiol]
Conditions	Critical pressure [kPa]	Critical temperature [K]	vapor or sublimation pressure [kPa]
–	1810 ± 70	733.7 ± 4	–
544.5 K	–	–	89.98 ± 3.6
577.8 K	–	–	178.6 ± 7.2
614.7 K	–	–	348.2 ± 14
659.9 K	–	–	694.3 ± 28
688.6 K	–	–	1039 ± 42
712.4 K	–	–	1384 ± 55
729.8 K	–	–	1726 ± 69

CC(O)COC(C)(C)C (stereo unspecified) [1-(1,1-dimethylethoxy)-2-propanol]
Conditions	Critical pressure [kPa]	Critical temperature [K]	vapor or sublimation pressure [kPa]
–	2720 ± 110	600.7 ± 4	–
450.5 K	–	–	200.9 ± 8.1
472.9 K	–	–	337.8 ± 14
510.2 K	–	–	689.5 ± 28
553.3 K	–	–	1380 ± 55
592.7 K	–	–	2414 ± 97
597.5 K	–	–	2586 ± 100
598.5 K	–	–	2668 ± 110

C=CCO [2-propenol]
Conditions	Critical pressure [kPa]	Critical temperature [K]	vapor or sublimation pressure [kPa]
–	5640 ± 330	547.1 ± 4	–
438.1 K	–	–	759.8 ± 82
465.2 K	–	–	1383 ± 150
498.5 K	–	–	2595 ± 280
531.5 K	–	–	4482 ± 480
545.4 K	–	–	5516 ± 590
546.5 K	–	–	5599 ± 600
